Measurements as given in patent publication US20230036854A1, “HETEROCYCLIC SPIRO-COMPOUNDS AS AM2 RECEPTOR INHIBITORS” (THE UNIVERSITY OF SHEFFIELD, priority 2018, published 2023).
Where no end group is shown, it is not given here.

biological target: T1, AM2 receptor (1321N1 cells transfected with CALCRL+RAMP3) (Homo sapiens, UniProt O60896+Q16602); test: AM2 receptor inhibition, LANCE cAMP agonist-antagonist competition assay; assay type: cell-based; conditions: inhibition of AM induced cAMP activation, read-out: AM2 D2 protocol: pIC50 (converted)
T1 construct: host or cells: 1321N1 cells
Summary of the method: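 1321N1 cells co-expressing CALCRL and RAMP3 (2500/well) were preincubated with compound for 30 min at room temperature, then stimulated with adrenomedullin at its EC50 dose for 15 min in HBSS/HEPES/BSA buffer, pH 7.4. cAMP was measured by LANCE TR-FRET and normalised to forskolin (100%) and vehicle (0%) controls.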

T1 sequence (Q16602 23-461): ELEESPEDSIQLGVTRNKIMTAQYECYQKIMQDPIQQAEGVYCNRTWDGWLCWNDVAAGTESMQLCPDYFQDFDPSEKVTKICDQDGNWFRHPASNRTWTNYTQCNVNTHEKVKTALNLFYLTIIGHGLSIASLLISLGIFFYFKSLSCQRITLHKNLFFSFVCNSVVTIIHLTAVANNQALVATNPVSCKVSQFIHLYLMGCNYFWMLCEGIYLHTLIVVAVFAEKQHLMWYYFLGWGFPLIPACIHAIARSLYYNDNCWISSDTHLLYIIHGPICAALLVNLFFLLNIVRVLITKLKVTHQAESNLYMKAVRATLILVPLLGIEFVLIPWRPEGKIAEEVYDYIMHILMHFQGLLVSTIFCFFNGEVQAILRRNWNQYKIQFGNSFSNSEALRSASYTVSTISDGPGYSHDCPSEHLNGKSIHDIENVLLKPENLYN
T1 sequence (O60896 24-148): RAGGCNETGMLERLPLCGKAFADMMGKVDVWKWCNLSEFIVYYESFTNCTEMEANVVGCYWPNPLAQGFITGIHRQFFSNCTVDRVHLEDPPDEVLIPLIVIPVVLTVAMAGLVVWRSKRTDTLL

Row | Compound | IC50
1 | CCC1(C(=O)N(CC(=O)Nc2ccc3c(c2)C[C@@]2(C3)C(=O)Nc3ncccc32)Cc2ccccc2CN)CCN(C(C)=O)CC1 [Example 133, (R)-1-Acetyl-N-(2-(aminomethyl)benzyl)-4-ethyl-N-(2-oxo-2-((2′-oxo-1,1′,2′,3-tetrahydrospiro[indene-2,3′-pyrrolo[2,3-b]pyridin]-5-yl)amino)ethyl)piperidine-4-carboxamide] | 6.92 nM
2 | CCNCc1ccccc1CN(CC(=O)Nc1ccc2c(c1)C[C@@]1(C2)C(=O)Nc2ncccc21)C(=O)C1(CC)CCN(C(C)=O)CC1 [Example 134, (R)-1-Acetyl-4-ethyl-N-(2-((ethylamino)methyl)benzyl)-N-(2-oxo-2-((2′-oxo-1,1′,2′,3-tetrahydrospiro[indene-2,3′-pyrrolo[2,3-b]pyridin]-5-yl)amino)ethyl)piperidine-4-carboxamide] | 115 nM
3 | CNCc1ccc(F)cc1CN(CC(=O)Nc1ccc2c(c1)C[C@@]1(C2)C(=O)Nc2ncccc21)C(=O)C1(C)CCNCC1 [Example 135, (R)—N-(5-Fluoro-2-((methylamino)methyl)benzyl)-4-methyl-N-(2-oxo-2-((2′-oxo-1,1′,2′,3-tetrahydrospiro[indene-2,3′-pyrrolo[2,3-b]pyridin]-5-yl)amino)ethyl)piperidine-4-carboxamide] | 55 nM
4 | CNCc1cc(F)ccc1CN(CC(=O)Nc1ccc2c(c1)C[C@@]1(C2)C(=O)Nc2ncccc21)C(=O)C1(C)CCNCC1 [Example 137, (R)—N-[[4-Fluoro-2-(methylaminomethyl)phenyl]methyl]-4-methyl-N-[2-oxo-2-[[(3R)-2-oxospiro[1H-pyrrolo[2,3-b]pyridine-3,2′-indane]-5′-yl]amino]ethyl]piperidine-4-carboxamide] | 417 nM
5 | CNCc1cc(F)ccc1CN(CC(=O)Nc1ccc2c(c1)C[C@@]1(C2)C(=O)Nc2ncccc21)C(=O)C1(C)CCN(C(C)=O)CC1 [Example 138, (R)-1-Acetyl-N-[[4-fluoro-2-(methylaminomethyl)phenyl]methyl]-4-methyl-N-[2-oxo-2-[[(3R)-2-oxospiro[1H-pyrrolo[2,3-b]pyridine-3,2′-indane]-5′-yl]amino]ethyl]piperidine-4-carboxamide] | 501 nM
6 | CNCc1ccccc1CN(CC(=O)Nc1ccc2c(c1)CC1(C2)C(=O)Nc2ncccc21)C(=O)C12CCN(CC1)CC2 (centres unmarked) [Example 139, N-(2-((Methylamino)methyl)benzyl)-N-(2-oxo-2-((2′-oxo-1,1′,2′,3-tetrahydrospiro[indene-2,3′-pyrrolo[2,3-b]pyridin]-5-yl)amino)ethyl)quinuclidine-4-carboxamide] | 56.2 nM
7 | CCC1(C(=O)N(CC(=O)Nc2ccc3c(c2)C[C@@]2(C3)C(=O)Nc3ncccc32)Cc2ccccc2CNC)CCN(C)C(=O)C1 (stereo partly drawn) [Example 140, 4-Ethyl-1-methyl-N-(2-((methylamino)methyl)benzyl)-2-oxo-N-(2-oxo-2-(((R)-2′-oxo-1,1′,2′,3-tetrahydrospiro[indene-2,3′-pyrrolo[2,3-b]pyridin]-5-yl)amino)ethyl)piperidine-4-carboxamide] | 417 nM
8 | CCC1(C(=O)N(CC(=O)Nc2ccc3c(c2)C[C@@]2(C3)C(=O)Nc3ncccc32)Cc2ccccc2CNC(C)C)CCN(C(C)=O)CC1 [Example 141, (R)-1-Acetyl-4-ethyl-N-(2-((isopropylamino)methyl)benzyl)-N-(2-oxo-2-((2′-oxo-1,1′,2′,3-tetrahydrospiro[indene-2,3′-pyrrolo[2,3-b]pyridin]-5-yl)amino)ethyl)piperidine-4-carboxamide] | 102 nM
9 | CNCc1ccccc1CN(CC(=O)Nc1ccc2c(c1)C[C@@]1(C2)C(=O)Nc2ncccc21)C(=O)C1(C)CCNC1 (stereo partly drawn) [Example 142, 3-Methyl-N-(2-((methylamino)methyl)benzyl)-N-(2-oxo-2-(((R)-2′-oxo-1,1′,2′,3-tetrahydrospiro[indene-2,3′-pyrrolo[2,3-b]pyridin]-5-yl)amino)ethyl)pyrrolidine-3-carboxamide] | 40.7 nM
10 | CNCc1ccccc1CN(CC(=O)Nc1ccc2c(c1)C[C@@]1(C2)C(=O)Nc2ncccc21)C(=O)C1(C)CCN(C(C)=O)C1 (stereo partly drawn) [Example 143, Acetyl-3-methyl-N-(2-((methylamino)methyl)benzyl)-N-(2-oxo-2-(((R)-2′-oxo-1,1′,2′,3-tetrahydrospiro[indene-2,3′-pyrrolo[2,3-b]pyridin]-5-yl)amino)ethyl)pyrrolidine-3-carboxamide] | 51.3 nM
11 | CNCc1ccccc1CN(CC(=O)Nc1ccc2c(c1)C[C@@]1(C2)C(=O)Nc2ncccc21)C(=O)C1(C)CN(C(C)=O)C1 [Example 144, (R)-1-Acetyl-3-methyl-N-(2-((methylamino)methyl)benzyl)-N-(2-oxo-2-((2′-oxo-1,1′,2′,3-tetrahydrospiro[indene-2,3′-pyrrolo[2,3-b]pyridin]-5-yl)amino)ethyl)azetidine-3-carboxamide] | 75.9 nM
12 | CNCc1ccccc1CN(CC(=O)Nc1ccc2c(c1)C[C@@]1(C2)C(=O)Nc2ncccc21)C(=O)C1(C)CCCN(C(C)=O)C1 (stereo partly drawn) [Example 145, 1-Acetyl-3-methyl-N-(2-((methylamino)methyl)benzyl)-N-(2-oxo-2-(((R)-2′-oxo-1,1′,2′,3-tetrahydrospiro[indene-2,3′-pyrrolo[2,3-b]pyridin]-5-yl)amino)ethyl)piperidine-3-carboxamide] | 302 nM
13 | CNCc1ccccc1CN(CC(=O)Nc1ccc2c(c1)C[C@@]1(C2)C(=O)Nc2ncccc21)C(=O)C1(C)CCCNC1 (stereo partly drawn) [Example 146, 3-Methyl-N-(2-((methylamino)methyl)benzyl)-N-(2-oxo-2-(((R)-2′-oxo-1,1′,2′,3-tetrahydrospiro[indene-2,3′-pyrrolo[2,3-b]pyridin]-5-yl)amino)ethyl)piperidine-3-carboxamide] | 229 nM
14 | CCC1(C(=O)N(CC(=O)Nc2ccc3c(c2)C[C@@]2(C3)C(=O)Nc3ncccc32)Cc2ccccc2CNC)CCS(=O)(=O)CC1 [Example 147, (R)-4-Ethyl-N-(2-((methylamino)methyl)benzyl)-N-(2-oxo-2-((2′-oxo-1,1′,2′,3-tetrahydrospiro[indene-2,3′-pyrrolo[2,3-b]pyridin]-5-yl)amino)ethyl)tetrahydro-2H-thiopyran-4-carboxamide 1,1-dioxide] | 10.5 nM
15 | CNCc1ccccc1CN(CC(=O)Nc1ccc2c(c1)C[C@@]1(C2)C(=O)Nc2ncccc21)C(=O)C1(C)CC2CCC(C1)N2C(C)=O (stereo partly drawn) [Example 148, 8-Acetyl-3-methyl-N-(2-((methylamino)methyl)benzyl)-N-(2-oxo-2-(((R)-2′-oxo-1,1′,2′,3-tetrahydrospiro[indene-2,3′-pyrrolo[2,3-b]pyridin]-5-yl)amino)ethyl)-8-azabicyclo[3.2.1]octane-3-carboxamide] | 2.24 nM
16 | CNCc1ccccc1CN(CC(=O)Nc1ccc2c(c1)C[C@@]1(C2)C(=O)Nc2ncccc21)C(=O)C1(C)CCCN(C(C)=O)CC1 (stereo partly drawn) [Example 149, 1-Acetyl-4-methyl-N-(2-((methylamino)methyl)benzyl)-N-(2-oxo-2-(((R)-2′-oxo-1,1′,2′,3-tetrahydrospiro[indene-2,3′-pyrrolo[2,3-b]pyridin]-5-yl)amino)ethyl)azepane-4-carboxamide] | 2.88 nM

tested on: human pancreatic cancer cells; test: not given; conditions: local injection directly into tumours, pancreatic cancer model; cited from earlier work

Row | Compound | tumour size compared to controls
17 | AM22-52: "the AM peptide antagonist (AM22-52)"; "peptide and antibody AM2 receptor inhibitors are known such as AM22-52" (TVQKLAHQIYQFTDKDKDNVAPRSKISPQGY; ends and bridges not checked; UniProt P35318 116-146, looked up, fragment) | reduced tumour size significantly
